According to ChEMBL document CHEMBL1201862, “PubChem BioAssay data set” (2004):
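1) Cells in 96-well plates. 2) Compound, 48 h, 5 concentrations. 3) Linear interpolation between surrounding doses. 4) Unreached endpoint = highest concentration. Abbreviation: GI50, concentration required for 50% inhibition of growth.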 Activity calls are given as the source filed them. Cut-off read from the data, not from the text of the source: active = GI50 up to about 1.1 µM and inactive = higher.

Assays:
Test in all cases: growth of human tumour cells (NCI), 48 h
CCRF-CEM = test system: CCRF-CEM
EKVX = test system: EKVX
KM12 = test system: KM12
M19-MEL = test system: M19-MEL
MOLT-4 = test system: MOLT-4
Malme-3M = test system: Malme-3M
NCI-H23 = test system: NCI-H23
NCI-H522 = test system: NCI-H522
OVCAR-8 = test system: OVCAR-8
SF-295 = test system: SF-295
SR = test system: SR
UO-31 = test system: UO-31
NCI-H460 = test system: NCI-H460
U-251 = test system: U-251
BT-549 = test system: BT-549
MDA-MB-231 = test system: MDA-MB-231
MDA-MB-435 = test system: MDA-MB-435
PC-3 = test system: PC-3
T47D = test system: T47D
LXFL 529 = test system: LXFL 529

| SMILES | GI50 (CCRF-CEM) | GI50 (EKVX) | GI50 (KM12) | GI50 (M19-MEL) | GI50 (MOLT-4) | GI50 (Malme-3M) | GI50 (NCI-H23) | GI50 (NCI-H522) | GI50 (OVCAR-8) | GI50 (SF-295) | GI50 (SR) | GI50 (UO-31) | GI50 (NCI-H460) | GI50 (U-251) | GI50 (BT-549) | GI50 (MDA-MB-231) | GI50 (MDA-MB-435) | GI50 (PC-3) | GI50 (T47D) | GI50 (LXFL 529) |
| --- | --- | --- | --- | --- | --- | --- | --- | --- | --- | --- | --- | --- | --- | --- | --- | --- | --- | --- | --- | --- |
| COc1ccc(/C=C2\C(=O)N(C(=O)Cc3ccccc3)N=C2C)cc1OC | > 100 µM (inactive) | > 100 µM (inactive) | > 100 µM (inactive) | > 100 µM (inactive) | > 100 µM (inactive) | > 100 µM (inactive) | > 100 µM (inactive) | > 100 µM (inactive) | > 100 µM (inactive) | > 100 µM (inactive) | > 100 µM (inactive) | > 100 µM (inactive) | – | – | – | – | – | – | – | – |
| Cc1cc(S(=O)(=O)O)c(NC(=O)C(=O)Cc2cc(=O)oc3cc(O)ccc23)cc1Cl | > 100 µM (inactive) | > 100 µM (inactive) | > 100 µM (inactive) | > 100 µM (inactive) | > 100 µM (inactive) | > 100 µM (inactive) | > 100 µM (inactive) | > 100 µM (inactive) | > 100 µM (inactive) | > 100 µM (inactive) | > 100 µM (inactive) | > 100 µM (inactive) | > 100 µM (inactive) | > 100 µM (inactive) | – | – | – | – | – | – |
| COc1ccc2[nH]c3ccc4cc[n+](CCN5CCC(C6CCN(CC[n+]7ccc8ccc9[nH]c%10ccc(OC)cc%10c9c8c7)CC6)CC5)cc4c3c2c1 | 0.274 µM (active) | > 50 µM (inactive) | 0.818 µM (active) | 0.719 µM (active) | 0.346 µM (active) | 0.526 µM (active) | > 50 µM (inactive) | 0.875 µM (active) | 0.405 µM (active) | 1.64 µM (inactive) | 0.117 µM (active) | > 100 µM (inactive) | – | 4.67 µM (inactive) | 35.5 µM (inactive) | 8.04 µM (inactive) | > 50 µM (inactive) | 31 µM (inactive) | 20.4 µM (inactive) | – |
| COc1ccc(NC(=O)/C(=N/O)C(C)=O)cc1 | 75.3 µM (inactive) | > 100 µM (inactive) | > 100 µM (inactive) | – | > 100 µM (inactive) | > 100 µM (inactive) | > 100 µM (inactive) | – | > 100 µM (inactive) | > 100 µM (inactive) | > 100 µM (inactive) | > 100 µM (inactive) | 23.5 µM (inactive) | > 100 µM (inactive) | – | – | – | – | – | > 100 µM (inactive) |
| NNC(=S)N/N=C(/C(=O)Nc1ccc([N+](=O)[O-])cc1)c1nc2ccc([N+](=O)[O-])cc2nc1O | > 100 µM (inactive) | > 100 µM (inactive) | > 100 µM (inactive) | > 100 µM (inactive) | > 100 µM (inactive) | > 100 µM (inactive) | > 100 µM (inactive) | 36.5 µM (inactive) | > 100 µM (inactive) | > 100 µM (inactive) | > 100 µM (inactive) | > 100 µM (inactive) | > 100 µM (inactive) | > 100 µM (inactive) | – | – | – | – | – | – |
| CON(C)C(=O)CNC(=O)OCC1c2ccccc2-c2ccccc21 | 44.1 µM (inactive) | > 100 µM (inactive) | > 100 µM (inactive) | – | 37.9 µM (inactive) | > 100 µM (inactive) | > 100 µM (inactive) | > 100 µM (inactive) | > 100 µM (inactive) | > 100 µM (inactive) | 30.6 µM (inactive) | 63.2 µM (inactive) | > 100 µM (inactive) | 98.4 µM (inactive) | > 100 µM (inactive) | > 100 µM (inactive) | > 100 µM (inactive) | 85.1 µM (inactive) | 68.4 µM (inactive) | – |
| CC1=CCC[C@@H]2[C@@](C)(Cc3cc(O)ccc3O)[C@H](C)CC[C@@]12C | 2.1 µM (inactive) | 6.5 µM (inactive) | 4.54 µM (inactive) | – | 3.48 µM (inactive) | 16.4 µM (inactive) | 5.87 µM (inactive) | 4.83 µM (inactive) | 5.45 µM (inactive) | 7.28 µM (inactive) | 2.38 µM (inactive) | 5.33 µM (inactive) | 5.83 µM (inactive) | 3.89 µM (inactive) | 5.47 µM (inactive) | 11.9 µM (inactive) | 5.2 µM (inactive) | 4.33 µM (inactive) | 5.38 µM (inactive) | – |
| C=CCC1(O)c2ccccc2C(=O)c2c(O)ccc(O)c21 (centres undefined) | 11.6 µM (inactive) | 11.4 µM (inactive) | 3.94 µM (inactive) | – | 1.93 µM (inactive) | 3.4 µM (inactive) | 10.7 µM (inactive) | 2.62 µM (inactive) | 12.4 µM (inactive) | 5.07 µM (inactive) | 5.48 µM (inactive) | 16.8 µM (inactive) | 3.52 µM (inactive) | 3.97 µM (inactive) | 6.03 µM (inactive) | 6.15 µM (inactive) | 1.8 µM (inactive) | 8.2 µM (inactive) | 7.74 µM (inactive) | – |
| Cc1c(NC(=O)CSC(=S)N(C)C)c(=O)n(-c2ccccc2)n1C | > 100 µM (inactive) | > 100 µM (inactive) | > 100 µM (inactive) | – | > 100 µM (inactive) | > 100 µM (inactive) | > 100 µM (inactive) | > 100 µM (inactive) | > 100 µM (inactive) | > 100 µM (inactive) | > 100 µM (inactive) | > 100 µM (inactive) | > 100 µM (inactive) | > 100 µM (inactive) | > 100 µM (inactive) | > 100 µM (inactive) | > 100 µM (inactive) | > 100 µM (inactive) | > 100 µM (inactive) | – |
| CO[C@@H]1[C@@H](OC2OC(C)C(OC3CC(C)(O)C(OC(=O)CC(C)C)C(C)O3)C(N(C)C)C2O)[C@@H](CC=O)C[C@@H](C)C(=O)/C=C/C2O[C@H]2C[C@@H](C)OC(=O)C[C@H]1OC(C)=O (some centres undefined) | 9.77 µM (inactive) | 22.4 µM (inactive) | 17.3 µM (inactive) | – | 9.57 µM (inactive) | 14 µM (inactive) | 18.9 µM (inactive) | 16.6 µM (inactive) | 22.6 µM (inactive) | 24.7 µM (inactive) | 11.3 µM (inactive) | 20.7 µM (inactive) | 16.8 µM (inactive) | 16.4 µM (inactive) | 17.6 µM (inactive) | 24.8 µM (inactive) | 17.7 µM (inactive) | 15.5 µM (inactive) | 18.7 µM (inactive) | – |
| C=C1C(=O)C23CC1C[C@H](OC(C)=O)[C@H]2C1(C)C(OC(C)=O)C[C@H](O)C(C)(C)[C@H]1C(=O)[C@@H]3OC(C)=O (some centres undefined) | 1.41 µM (inactive) | 6.84 µM (inactive) | 10.9 µM (inactive) | – | 1.21 µM (inactive) | 2.17 µM (inactive) | 3.58 µM (inactive) | 1.57 µM (inactive) | 2.95 µM (inactive) | 17.9 µM (inactive) | 2.47 µM (inactive) | 4.93 µM (inactive) | 17.5 µM (inactive) | 15 µM (inactive) | 2.84 µM (inactive) | 5.7 µM (inactive) | 3.09 µM (inactive) | 10.3 µM (inactive) | 2.72 µM (inactive) | – |
| CCCCCCCCC[n+]1cccc(C2C(C(=O)OCC)=C(C)NC(C)=C2C(=O)OCC)c1 | 2.11 µM (inactive) | 11.9 µM (inactive) | 1.98 µM (inactive) | – | 3.98 µM (inactive) | 1.9 µM (inactive) | 4.36 µM (inactive) | 2.68 µM (inactive) | 3.39 µM (inactive) | 17 µM (inactive) | 5.74 µM (inactive) | 16.2 µM (inactive) | 5.7 µM (inactive) | 3.21 µM (inactive) | 1.71 µM (inactive) | 2.97 µM (inactive) | 2.08 µM (inactive) | 4.27 µM (inactive) | 5.04 µM (inactive) | – |
| COC(=O)c1cc(C)n(CN(Cn2nc(C(=O)OC)cc2C)c2ccccc2)n1 | 16 µM (inactive) | > 100 µM (inactive) | 29.4 µM (inactive) | – | 13.4 µM (inactive) | 43.2 µM (inactive) | 25.2 µM (inactive) | 39 µM (inactive) | 19.4 µM (inactive) | 32.8 µM (inactive) | 10 µM (inactive) | 18.3 µM (inactive) | 57.9 µM (inactive) | 39 µM (inactive) | 31 µM (inactive) | > 100 µM (inactive) | 42.9 µM (inactive) | 28.3 µM (inactive) | 22 µM (inactive) | – |
| CC(=O)n1nc(-c2ccccc2)n(/N=C/c2ccc([N+](=O)[O-])o2)c1=O | 1.6 µM (inactive) | 0.933 µM (active) | 16.4 µM (inactive) | – | 3.24 µM (inactive) | 6.67 µM (inactive) | 7.64 µM (inactive) | 3.7 µM (inactive) | 9.93 µM (inactive) | 1.66 µM (inactive) | 3.08 µM (inactive) | 1.77 µM (inactive) | 7.06 µM (inactive) | 15.9 µM (inactive) | 8.32 µM (inactive) | 8.34 µM (inactive) | 6.5 µM (inactive) | 13.7 µM (inactive) | 19.9 µM (inactive) | – |
| CCC(=O)NCCc1c[nH]c2ccc(OC)cc12 | > 100 µM (inactive) | > 100 µM (inactive) | > 100 µM (inactive) | – | > 100 µM (inactive) | > 100 µM (inactive) | > 100 µM (inactive) | > 100 µM (inactive) | > 100 µM (inactive) | > 100 µM (inactive) | > 100 µM (inactive) | > 100 µM (inactive) | > 100 µM (inactive) | > 100 µM (inactive) | > 100 µM (inactive) | > 100 µM (inactive) | > 100 µM (inactive) | > 100 µM (inactive) | > 100 µM (inactive) | – |
| O=C(Nc1ccc2ccccc2c1)c1cc2cc(CCl)ccc2oc1=O | 55.5 µM (inactive) | > 100 µM (inactive) | > 100 µM (inactive) | – | > 100 µM (inactive) | 87.7 µM (inactive) | 19 µM (inactive) | 74 µM (inactive) | > 100 µM (inactive) | 33.3 µM (inactive) | > 100 µM (inactive) | > 100 µM (inactive) | > 100 µM (inactive) | 30.8 µM (inactive) | 44 µM (inactive) | 49 µM (inactive) | > 100 µM (inactive) | > 100 µM (inactive) | > 100 µM (inactive) | – |
